Measured values from paper PMC5573538, “Contrasting effects of phosphatidylinositol 4,5‐bisphosphate on cloned TMEM16A and TMEM16B channels” (British Journal of Pharmacology, 2017).

How the values were obtained:
TMEM16B = biological target: T1, TMEM16B (Mus musculus, UniProt Q8CFW1); experiment: inside-out patch clamp, excised patches from HEK-293T cells, +[…] mV, […] Ca2+ (partial current inhibition); format: biochemical; settings: read-out: K i
T1 construct: gene Ano2; mouse TMEM16B isoform A, expressed in HEK-293T cells
T1 sequence (Q8CFW1 1-1002): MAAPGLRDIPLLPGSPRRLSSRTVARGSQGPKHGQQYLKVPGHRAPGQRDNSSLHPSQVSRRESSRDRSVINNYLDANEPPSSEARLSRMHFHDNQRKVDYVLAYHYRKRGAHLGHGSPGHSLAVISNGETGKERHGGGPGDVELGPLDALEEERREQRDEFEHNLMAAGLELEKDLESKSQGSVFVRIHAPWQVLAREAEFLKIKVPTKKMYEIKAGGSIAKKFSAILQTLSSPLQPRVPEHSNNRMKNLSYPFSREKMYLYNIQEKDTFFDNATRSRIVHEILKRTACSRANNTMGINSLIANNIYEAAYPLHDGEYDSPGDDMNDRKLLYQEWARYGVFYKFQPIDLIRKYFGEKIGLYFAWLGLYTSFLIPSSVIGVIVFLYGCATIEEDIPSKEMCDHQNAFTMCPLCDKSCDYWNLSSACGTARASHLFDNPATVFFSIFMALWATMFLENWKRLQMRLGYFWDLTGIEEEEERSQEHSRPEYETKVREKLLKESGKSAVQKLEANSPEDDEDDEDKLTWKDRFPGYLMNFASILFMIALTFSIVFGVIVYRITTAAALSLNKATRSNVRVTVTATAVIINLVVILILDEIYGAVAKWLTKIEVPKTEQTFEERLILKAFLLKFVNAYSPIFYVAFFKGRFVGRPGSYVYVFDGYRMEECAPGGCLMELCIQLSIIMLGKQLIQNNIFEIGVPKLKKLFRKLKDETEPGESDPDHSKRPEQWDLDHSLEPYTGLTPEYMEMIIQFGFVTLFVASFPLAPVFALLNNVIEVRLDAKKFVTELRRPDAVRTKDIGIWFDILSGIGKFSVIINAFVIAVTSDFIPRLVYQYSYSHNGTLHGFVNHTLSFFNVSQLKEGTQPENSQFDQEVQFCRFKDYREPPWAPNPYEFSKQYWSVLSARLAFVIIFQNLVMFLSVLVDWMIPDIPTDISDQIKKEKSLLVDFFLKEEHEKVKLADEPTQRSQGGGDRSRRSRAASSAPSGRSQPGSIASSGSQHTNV

TMEM16A = biological target: T2, TMEM16A (Mus musculus, UniProt Q8BHY3); experiment: inside-out patch clamp, excised patches from HEK-293T cells, +[…] mV, […] Ca2+ (current activation); format: biochemical; settings: read-out: K a
T2 construct: gene Ano1; mouse TMEM16A isoform (ac), expressed in HEK-293T cells
T2 sequence (Q8BHY3 1-960): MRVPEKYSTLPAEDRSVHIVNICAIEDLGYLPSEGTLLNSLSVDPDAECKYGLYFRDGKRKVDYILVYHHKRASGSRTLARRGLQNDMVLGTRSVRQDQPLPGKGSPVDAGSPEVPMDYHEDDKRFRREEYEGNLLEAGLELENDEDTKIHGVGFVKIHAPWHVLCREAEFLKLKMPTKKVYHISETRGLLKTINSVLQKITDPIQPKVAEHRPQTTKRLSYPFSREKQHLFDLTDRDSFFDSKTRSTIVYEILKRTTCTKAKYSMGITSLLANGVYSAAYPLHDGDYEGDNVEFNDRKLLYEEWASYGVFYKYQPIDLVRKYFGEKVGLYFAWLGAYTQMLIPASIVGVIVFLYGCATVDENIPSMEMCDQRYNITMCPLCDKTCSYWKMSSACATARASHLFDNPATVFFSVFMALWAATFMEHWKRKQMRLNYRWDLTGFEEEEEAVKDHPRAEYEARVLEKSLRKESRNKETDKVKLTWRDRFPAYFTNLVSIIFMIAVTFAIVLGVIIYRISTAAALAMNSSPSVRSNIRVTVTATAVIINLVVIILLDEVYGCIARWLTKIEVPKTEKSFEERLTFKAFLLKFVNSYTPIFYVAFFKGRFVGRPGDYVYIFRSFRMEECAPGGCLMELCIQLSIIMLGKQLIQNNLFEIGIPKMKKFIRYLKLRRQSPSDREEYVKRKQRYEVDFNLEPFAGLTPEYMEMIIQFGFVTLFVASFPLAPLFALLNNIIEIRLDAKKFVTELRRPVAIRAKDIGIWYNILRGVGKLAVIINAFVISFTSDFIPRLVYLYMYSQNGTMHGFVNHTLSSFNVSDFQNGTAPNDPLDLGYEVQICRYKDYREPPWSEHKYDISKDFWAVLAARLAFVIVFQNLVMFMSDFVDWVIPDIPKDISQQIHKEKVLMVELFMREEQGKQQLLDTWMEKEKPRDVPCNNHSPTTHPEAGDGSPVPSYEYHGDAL

CCCCCCCC(=O)OC[C@H](COP(=O)(O)O[C@@H]1[C@H](O)[C@H](O)[C@@H](OP(=O)(O)O)[C@H](OP(=O)(O)O)[C@H]1O)OC(=O)CCCCCCC [diC8‐PIP2]
IC50 (TMEM16B): 46 ± 2 µM
EC50 (TMEM16A): 53 ± 9 µM
